According to PMC2663033 (2009):

Assays:
[1] = system: aptamer II (DNA, G4) AGTCCGTGGTTGGTGTGGTTGGGGTGACT; assay: peroxidase activity (ABTS-H2O2); conditions: 20 mM K+, 200 mM Na+; 25 mM HEPES pH 8.0, 0.05% Triton X-100, 1% DMSO; 1 µM hemin plus 1 µM aptamer
[2] = system: aptamer 4 (DNA, G4) AGGGACGGGAAGAA/AAAATGTGGAGGGT; assay: UV-Vis, hyperchromicity of hemin Soret band; conditions: 20 mM K+, 200 mM Na+; 25 mM HEPES pH 7.4, 0.05% Triton X-100, 1% DMSO; 1 µM complex
[3] = system: aptamer III (DNA, G4) AGGGACGGGAAGAAAAGGAAAATCCTTAAAATGTGGAGGGT; assay: UV-Vis, hyperchromicity of hemin Soret band; conditions: 20 mM K+, 200 mM Na+; 25 mM HEPES pH 7.4, 0.05% Triton X-100, 1% DMSO; 1 µM complex; about 2 x affinity of aptamer 4
[4] = system: aptamer 1 (DNA, G4) GGGTAGGGCGGGTTGGG; assay: peroxidase activity titration (ABTS-H2O2, A421); conditions: 20 mM K+, 200 mM Na+; 5.45 mM ABTS, 25 mM HEPES pH 8.0, 0.05% Triton X-100, 1% DMSO, 0.1 µM hemin
[5] = system: aptamer I (DNA, G4) AGTCCGTGGGTAGGGCGGGTTGGGGGTGACT; assay: peroxidase activity titration (ABTS-H2O2, A421); conditions: 20 mM K+, 200 mM Na+; 5.45 mM ABTS, 25 mM HEPES pH 8.0, 0.05% Triton X-100, 1% DMSO, 0.1 µM hemin

binding [1]: yes | binding [2]: yes | binding [3]: yes | Kd [4]: 258 ± 7 nM | Kd [5]: 194 ± 10 nM
SMILES: C=CC1=C(C)C2=Cc3c(C=C)c(C)c4[n]3[Fe]([Cl])[n]3c(c(C)c(CCC(=O)O)c3=CC3=NC(=C4)C(C)=C3CCC(=O)O)=CC1=N2
